Data as given in patent US8278072B1, “Method for synthesis of sialylated products using reversible sialylation” (Health Research, Inc., priority 2007, dated 2012).

How the values were obtained:
Format in all cases: biochemical
[1] = target: T1, ST3Gal II (Cloned rat liver) (Rattus norvegicus, UniProt Q11205); experiment: Forward (direct) sialyltransferase activity, ST3Gal-II; conditions: donor CMP-[9-3H]NeuAc, acceptor [5], varying nucleotide concentrations
T1 construct: purchased Calbiochem
T1 sequence (Q11205 1-350): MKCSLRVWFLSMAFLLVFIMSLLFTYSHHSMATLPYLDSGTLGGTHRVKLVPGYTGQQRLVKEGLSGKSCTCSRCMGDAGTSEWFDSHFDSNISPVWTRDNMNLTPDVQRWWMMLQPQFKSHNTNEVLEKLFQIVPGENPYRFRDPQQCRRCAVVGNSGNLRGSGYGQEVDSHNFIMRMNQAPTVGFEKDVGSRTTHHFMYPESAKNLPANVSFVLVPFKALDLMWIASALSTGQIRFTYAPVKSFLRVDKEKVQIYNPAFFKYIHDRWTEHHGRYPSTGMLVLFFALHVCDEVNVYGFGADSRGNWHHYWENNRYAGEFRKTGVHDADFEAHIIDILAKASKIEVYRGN
Protocol: (§1) FIG. 5. Effect of 5′-nucleotides on direct sialyltransferase activity (panel a) and reverse sialylation (panel b). a. Varying concentrations of 5′-CDP or 5′-CMP were added to 100 mM acceptor (specified below), 0.15 mM CMP-[9-^3H]NeuAc and either ST3Gal-II (0.2 mU), ST3Gal-III (0.5 mU) or ST6Gal-I (0.2 mU) for 4 h at 37° C. Products were separated using Sep-Pak C18 method. ST3Gal-III activity was measured using acceptor 4-O-MeGalβ1,4GlcNAcβ-O-Bn in the presence of 5′-CDP (●) and 5′-CMP (◯). ST6Gal-I activity was measured using Gal β1,4GlcNAcβ-O-Bn in the presence of 5′-CDP (▴) and 5′-CMP (Δ). ST3Gal-II using D-Fucβ1,3GalNAcα-O-Bn in the presence of 5′-CDP (▪) and 5′-CMP (□). b) Reverse sialylation by ST3Gal-II was measured in reaction mixtures containing 0.2 mM [9-^3H] [3], 7 mM 5′-CMP, ST3Gal-II (2 mU), D-Fucβ1,3GalNAcα-OBn (3.0 mM) and varying doses of either 5′-CDP (▴), 5′-UMP (◯) or 2-deoxy 5′-CMP (●) for 4 hours at 37° C. Reaction product ([9-^3H]NeuAcα2,3DFucβ1,3 GalNAcα-O-Bn) was isolated using Sep-Pak C18 method. In some runs, where was absent, the amount of CMP-NeuAc produced was quantified using the Dowex-1 Formate method in the presence of varying doses of 5′-CDP (▪).
(§2) Besides pH other distinctions were also observed between forward and reverse sialylation. In this regard, citrate ions tended to inhibit forward sialylation but not reverse sialylation activity (Table V). For these studies, the effect of citrate on the forward sialylation activity of ST3Gal-I, ST3Gal-II, ST3Gal-III and ST6Gal-I was examined. Reverse sialylation activity of ST3Gal-II was also measured in terms of: i) the formation of CMP-NeuAc from 5′-CMP; and ii) the transfer of NeuAc from this newly synthesized CMP-NeuAc to another O-glycan. From the data (Table V), it is evident that citrate inhibits the direct sialylation activity of all the enzymes mentioned above. However, both the synthesis of CMP-[9-^3H]NeuAc from 5′-CMP as well as the synthesis of [9-^3H]NeuAcα2,3D-Fucβ1,3 GalNAcα-O-Bn using the newly formed CMP-[9-^3H]NeuAc through reverse sialylation of ST3Gal-II was not inhibited by citrate.
(§3) The effect of 5′-nucleotides on forward sialylation (FIG. 5a) and reverse sialylation (FIG. 5b) were examined. […] The overall formation of [9-^3H]NeuAcα2,3D-Fucβ1,3 GalNAcα-O-Bn by the two-step reverse sialylation process, however, was inhibited by 5′-CDP and this is consistent with the finding that 5′-CDP inhibits forward sialylation in the second step.

[2] = target: T2, ST3Gal III (Cloned rat liver) (Rattus norvegicus, UniProt Q02734); experiment: Forward (direct) sialyltransferase activity, ST3Gal-III; conditions: donor CMP-[9-3H]NeuAc, acceptor 4-O-MeGalβ1,4GlcNAcβ-O-Bn
T2 construct: purchased Calbiochem
T2 sequence (Q02734 1-374): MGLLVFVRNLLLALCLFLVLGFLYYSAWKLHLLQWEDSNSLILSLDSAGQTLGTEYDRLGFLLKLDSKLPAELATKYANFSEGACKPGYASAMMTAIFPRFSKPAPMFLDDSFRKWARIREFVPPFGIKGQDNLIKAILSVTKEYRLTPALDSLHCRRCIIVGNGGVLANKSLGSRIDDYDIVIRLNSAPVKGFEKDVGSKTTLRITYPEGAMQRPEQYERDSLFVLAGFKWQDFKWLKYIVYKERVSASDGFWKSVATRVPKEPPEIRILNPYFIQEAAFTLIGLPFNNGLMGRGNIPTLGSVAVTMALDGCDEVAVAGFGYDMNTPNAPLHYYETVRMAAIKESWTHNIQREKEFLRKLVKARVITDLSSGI
Protocol: as §1, §2, §3

[3] = target: T3, ST6Gal I (Cloned rat liver) (Rattus norvegicus, UniProt P13721); experiment: Forward (direct) sialyltransferase activity, ST6Gal-I; conditions: donor CMP-[9-3H]NeuAc, acceptor Galβ1,4GlcNAcβ-O-Bn
T3 construct: purchased Calbiochem
T3 sequence (P13721 1-403): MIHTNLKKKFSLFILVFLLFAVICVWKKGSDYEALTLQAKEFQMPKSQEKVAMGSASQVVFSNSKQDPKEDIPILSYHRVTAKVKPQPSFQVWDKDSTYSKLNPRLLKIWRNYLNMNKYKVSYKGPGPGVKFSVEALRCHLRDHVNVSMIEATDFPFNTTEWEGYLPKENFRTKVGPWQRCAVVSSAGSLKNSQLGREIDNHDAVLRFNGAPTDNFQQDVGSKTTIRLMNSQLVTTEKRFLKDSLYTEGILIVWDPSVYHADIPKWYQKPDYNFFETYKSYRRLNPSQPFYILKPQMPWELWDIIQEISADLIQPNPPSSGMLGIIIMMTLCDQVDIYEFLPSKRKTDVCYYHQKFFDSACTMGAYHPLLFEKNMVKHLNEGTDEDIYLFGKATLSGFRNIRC
Protocol: as §1, §2, §3

| Effect on forward sialylation activity of ST3Gal-II [1] | Effect on forward sialylation activity of ST3Gal-III [2] | Effect on forward sialylation activity of ST6Gal-I [3] | Structure (SMILES) |
| --- | --- | --- | --- |
| inhibited | inhibited | inhibited | Nc1ccn([C@@H]2O[C@H](COP(=O)(O)OP(=O)(O)O)[C@@H](O)[C@H]2O)c(=O)n1 [5′-CDP] |
| inhibited | inhibited | inhibited | Nc1ccn([C@@H]2O[C@H](COP(=O)(O)O)[C@@H](O)[C@H]2O)c(=O)n1 [5′-CMP, Cytidine 5′-monophosphate] |
